Values quoted from earlier work in US20100137844A1, “Delivery devices for modulating inflammation” (Searete LLC, a limited liability corporation of the State …, priority 2008, published 2010).

Assays:
[1] = tested on: proteasomal activity in cultured breast cancer cells; conditions: via copper binding
[2] = 400 mg infused over one hour, single agent
Fyn = Fyn (Homo sapiens, UniProt P06241); conditions: at nanomolar concentrations
Sequence of Fyn (P06241 whole entry): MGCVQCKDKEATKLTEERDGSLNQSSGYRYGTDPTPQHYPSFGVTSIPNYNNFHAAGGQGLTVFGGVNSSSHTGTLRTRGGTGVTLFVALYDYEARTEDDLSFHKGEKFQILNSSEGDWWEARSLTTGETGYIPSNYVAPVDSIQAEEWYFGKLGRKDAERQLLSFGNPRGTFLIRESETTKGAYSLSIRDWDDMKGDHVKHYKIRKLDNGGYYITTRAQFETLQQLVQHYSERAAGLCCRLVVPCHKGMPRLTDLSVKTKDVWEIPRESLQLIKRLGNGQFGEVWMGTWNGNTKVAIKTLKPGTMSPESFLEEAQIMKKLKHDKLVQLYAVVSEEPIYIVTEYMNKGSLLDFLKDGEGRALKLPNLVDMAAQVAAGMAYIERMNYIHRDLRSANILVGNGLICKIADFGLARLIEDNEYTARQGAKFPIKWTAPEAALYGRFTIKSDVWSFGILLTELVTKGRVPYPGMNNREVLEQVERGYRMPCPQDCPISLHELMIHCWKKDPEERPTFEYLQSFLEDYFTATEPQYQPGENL

SMILES: CCN(CC)C(=S)SSC(=S)N(CC)CC [disulfiram, 1-(diethylthiocarbamoyldisulfanyl)-N,N-diethyl-methanethioamide]
- inhibition of aldehyde dehydrogenase (aldehyde dehydrogenase): inhibits aldehyde dehydrogenase without toxicity
- proteasomal activity [1]: inhibits proteasomal activity

SMILES: CCN(CC)CCCC(C)Nc1ccnc2cc(Cl)ccc12.O=P(O)(O)O.O=P(O)(O)O (centres unmarked) [chloroquine phosphate, 7-chloro-4-[[4-(diethylamino)-1-methylbutyl]amino]quinoline phosphate (1:2)]
- tolerability of intravenous infusion [2]: without complication

SMILES: Cc1nc(Nc2ncc(C(=O)Nc3c(C)cccc3Cl)s2)cc(N2CCN(CCO)CC2)n1.O [dasatinib, N-(2-chloro-6-methylphenyl)-2-[[6-[4-(2-hydroxyethyl)-1-piperazinyl]-2-methyl-4-pyrimidinyl]amino]-5-thiazolecarboxamide, monohydrate]
- inhibition of Fyn (Fyn): inhibits

SMILES: Cl.Cl.Nc1ccccc1Oc1ccc2c(N)nsc2c1 [Example M62812, 3-amino-6-(2-aminophenoxy)-1,2-benzisothiazole dihydrochloride]
- prevention of lethal septic shock (mice): prevents lethal septic shock in mice
